Experimental data: US20180200232A1, “PHARMACEUTICAL COMPOSITIONS USEFUL FOR THE TREATEMENT OF TISSUE INJURY” (MedRegen, LLC, priority 2015, published 2018)
Where “and” joins values, the source holds several entries; their conditions need not be identical. Equal values may be shown once.

Columns and labels:
CXCR4 chomokin receptor = CXCR4 chomokin receptor (Homo sapiens, UniProt P61073); conditions: read-out: IC50, binds to and inhibits the CXCR4 receptor; cited from earlier work
[1] = tested on: cell migration stimulated by CXCL12; conditions: cited from earlier work
[2] = tested on: colony forming cells (CFCs) in mobilized peripheral blood; test: CFC assay for stem cell mobilization activity in mice; assay type: in vivo, C57/B6 mice; conditions: peripheral blood 3 hours after drug treatment; AMD3100 1.0 mg/kg, Tacrolimus 0.1 mg/kg; vs saline (FIG. 1)
Description: Hematopoietic colony-forming cell (CFC) assays have been used extensively for research and clinical applications in humans and animal models as a way of quantifying and assessing the hematopoietic progenitor content of a cell sample. The stem cell mobilization activity can be measured by using CFC assays in mobilized peripheral blood samples. CFCs are able to divide and differentiate into a colony of more mature cells that can be detected by light microscopy. This allows for the quantification of multipotent stem cell lineages mobilized by pharmaceutical agents.
C57/B6 mice were divided into four treatment groups: 1) control group treated with saline; 2) AMD3100 group (1.0 mg/kg); (3) Tacrolimus group treated with
low-dose (0.1 mg/kg); and (4) AF Combination (containing AMD3100 and Tacrolimus). […] Viable PBMCs were counted and mixed with Methocult GF methylcellulose medium (StemCell Technologies, Vancouver, BC, Canada; Cat.: 03444) containing 100 Uml penicillin and 100 μg/ml streptomycin to give a final density of 1×10^5 viable PBMCs/1.5 ml of medium. […] Colony-forming units (CFUs) were counted using an inverted microscope (Carl Zeiss Microscopy, Thornwood, N.Y.) at ×4. The number of CFUs was determined by dividing the number of viable cells per milliliter by the number of plated cells per well and multiplying by the number of counted CFUs/well.

[3] = tested on: renal allograft rejection; test: mismatched kidney transplantation in miniature swine; assay type: in vivo; conditions: for Creatinine (serum): at time of death; for effect on survival: drug alone; for Survival: one animal per value; for post-operative day of death or euthanasia: single perioperative course
Description: Animals—SLA-identified donor and recipient swine (weight 50-80 kg) were obtained from Transplantation Biology Research Center of Massachusetts General Hospital, Boston, Mass. The immunogenetic characteristics of these swine have been described previously (30). Two-haplotype full MHC class I and class II mismatched donors and recipients were used for kidney transplantation. […] Institutional review board (Animal Care and Use Committee) approval was obtained for this study. All animal care and procedures were in compliance with the “Principles of Laboratory Animal Care” formulated by the National Society of Medical Research and the “Guide for the Care and Use of Laboratory Animals” prepared by the Institute of Laboratory Animal Resources, National Research Council, and published by the National Academies Press, revised 2011.
Kidney transplantation—The surgical procedure used for kidney transplantation has been described in Kirkman R L, et al. Transplantation in miniature swine. VI. Factors influencing survival of renal allografts. Transplantation 1979; 28: 18-23, the entire disclosure of which is herein incorporated by reference. Briefly, donor kidneys were flushed and persevered in cold saline for 3-6 h before reperfusion. The recipients underwent bilateral nephrectomy. […] The kidney transplantation was completed with a vesicoureteral anastomosis. An indwelling Silastic central venous catheter was placed surgically into the external or internal jugular vein. The catheter facilitated frequent blood sampling for in vitro assays and for monitoring of renal function and whole-blood Tacrolimus levels.
Rejection monitoring—Kidney function was monitored by serial serum creatinine levels. Serum creatinine and blood urea nitrogen levels were analyzed in the Phenotyping Laboratory of the Department of Comparative Medicine at Johns Hopkins. Biopsies were performed on transplant recipients using needle core biopsy via an open or percutaneous ultrasound-guided approach. Renal allograft rejection was defined as sustained rise in serum creatinine to >10 mg/dL or anuria (normal laboratory value for swine serum creatinine is 1-3 mg/dL).
Histopathological examination—Core needle biopsies or wedge biopsies were performed on renal allografts. Scoring of acute rejection was based on the Banff classification; see, e.g., Solez K, et al. Banff 07 classification of renal allograft pathology: Updates and future directions. Am J Transplant 2008; 8: 753-760, the entire disclosure of which is herein incorporated by reference. Masson trichrome staining was done according to standard protocols.
SLA-identified and -mismatched inbred miniature swine were subjected to bilateral nephrectomy and transplantation (FIG. 1B) as described in Sachs D H, et al. Transplantation in miniature swine. I. Fixation of the major histocompatibility complex. Transplantation 1976; 22: 559-567, the entire disclosure of which is herein incorporated by reference. […] VI. Factors influencing survival of renal allografts. Transplantation 1979; 28: 18-23, supra. Five experimental treatment groups were defined as follows, and each group received subcutaneous injections on days 0, 2, 4, 6, and 8 post-transplantation: (1) saline (n=1); (2) low-dose (0.03 mg/kg) Tacrolimus alone (n=3); (3) AMD3100 1 mg/kg alone (n=3); (4) AF Combination treatment (AMD3100 1 mg/kg and Tacrolimus 0.03 mg/kg) (n=1); and (5) AF Combination treatment as in group 4 but with repeat of the 8-day course at 1, 2, and 3 months post-transplantation.

[4] = solubility of Tacrolimus powder in water solutions; assay type: physicochemical

Sequence of CXCR4 chomokin receptor (P61073 whole entry): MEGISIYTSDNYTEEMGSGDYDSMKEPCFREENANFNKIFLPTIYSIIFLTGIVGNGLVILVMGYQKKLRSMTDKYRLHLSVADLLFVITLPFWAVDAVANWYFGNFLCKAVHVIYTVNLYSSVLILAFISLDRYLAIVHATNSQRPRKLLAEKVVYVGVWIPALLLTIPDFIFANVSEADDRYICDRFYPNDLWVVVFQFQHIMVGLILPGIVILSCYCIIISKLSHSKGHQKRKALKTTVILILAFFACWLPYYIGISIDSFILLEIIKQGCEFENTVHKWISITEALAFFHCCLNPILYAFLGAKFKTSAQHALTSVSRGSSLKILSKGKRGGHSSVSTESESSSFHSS

Compound	IC50 (CXCR4 chomokin receptor)	IC50 [1]	number of colony forming cells (CFCs) [2]	Creatinine (serum) ([3]; no re-treatment, listed as AMD3100 only)	effect on survival [3]	Survival ([3]; no re-treatment, s.c. days 0, 2, 4, 6, 8, listed as AMD3100 only)	post-operative day of death or euthanasia [3]	solubility in water solutions (e.g., saline) [4]	Survival ([3]; Re-Treatment Yes)	serum creatinine level ([3]; animal 21343, POD 40 after repeat dosing)	serum creatinine level ([3]; animal 21343, POD 56)	serum creatinine level ([3]; animal 21343, before effect of repeat dosing at 1 month)	Creatinine (serum) ([3]; Re-Treatment Yes)	Creatinine (serum) ([3]; no re-treatment, listed as Tacro only)	effect on survival ([3]; listed as FK506)	Survival ([3]; no re-treatment, s.c. days 0, 2, 4, 6, 8, listed as Tacro only)	post-operative day of death ([3]; redosing at 30 days)
4F-benzoyl-TN14003 [BKT140]	~0.001 µM																
c1cc(CN2CCCNCCNCCCNCC2)ccc1CN1CCCNCCNCCCNCC1 [AMD3100, 1,1′-[1,4-phenylenebis(methylene)]bis¬1,4,8,11-tetraazacyclo-tetradecane]		0.051 ± 0.017 µM	significantly increased	22.3 mg/dL and 17.3 mg/dL and 26.4 mg/dL	no prolongation of survival	10 days and 16 days and 9 days	9 POD and 10 POD and 16 POD										
C=CC[C@@H]1/C=C(\C)C[C@H](C)C[C@H](OC)[C@H]2O[C@@](O)(C(=O)C(=O)N3CCCC[C@H]3C(=O)O[C@H](/C(C)=C/[C@@H]3CC[C@@H](O)[C@H](OC)C3)[C@H](C)[C@@H](O)CC1=O)[C@H](C)C[C@@H]2OC [Tacrolimus]			significantly increased		prolongation of survival		27 POD and 28 POD	poor solubility	56 days	8.3 mg/dL	9.8 mg/dL	12.3 mg/dL	9.8 mg/dL	11.5 mg/dL and 9.9 mg/dL	prolonged survival but was ineffective against late rejection	28 days and 27 days	56 POD
